Measured values reported in patent US20220031800A1, “PEPTIDES FOR TREATING NON-EXUDATIVE MACULAR DEGENERATION AND OTHER DISORDERS OF THE EYE” (Allegro Pharmaceuticals, LLC, priority 2019, published 2022).
Square brackets hold non-standard residues; d marks the D form. Peptide text beside a SMILES is read from it. Cya = N[C@@H](CS(=O)(=O)O)C(=O)O

Test system: study eye of subjects with intermediate non-exudative AMD
Assay: SD-OCT Analysis 2 (thickness, volume, map coverage of retinal layers)
Type: in vivo, human
Description: Numerous study assessments were conducted at various time points throughout the study. Included among these study assessments were; refractive eye examinations, determinations of BCVA AND low-luminance BCVA, Lanthony D-15 color vision test, measurement of intraocular pressure (IOP), Indirect ophthalmoscopy/dilated fundus examinations and spectral-domain optical coherence tomography (SD-OCT). Also, blood and saliva samples were obtained from each subject for genetic analysis. The above-listed study assessments were performed at the time points indicated in Table 1, below: The OCT scans were analyzed by two (2) unrelated experts. In Analysis #2, the OCT images of study eyes were analyzed to determine mean thickness and mean volume of numerous retinal subfields and layer segments at baseline and at Week 12 for sham eyes and at baseline and at Week 32 for risuteganib eyes, to document any significant differences between groups of eyes based on baseline measurements or changes from baseline in those measurements. In addition to the quantitative analysis of OCT images, OCT Analysis #2 included qualitative assessment of the OCT images to identify GA, pseudodrusen, and disruption of the ELM and EZ layers. FIGS. 9A, 9B and 9C illustrate the level of varying pathology within the ELM based on quantitative mapping that were also assessed, with FIG. 9A (left) showing no ELM disruption, FIG. 9B (center) showing segmental disruption, and FIG. 9C showing diffuse disruption.

[1] = change from baseline at Week 32, risuteganib super-responder eyes, n = 8
[2] = paired change from baseline at Week 32, risuteganib arm n = 24
[3] = paired difference from baseline at Week 32, risuteganib arm n = 24

## C[C@@H](O)[C@H](NC(=O)[C@H](CS(=O)(=O)O)NC(=O)CNC(=O)[C@H](CCCNC(=N)N)NC(=O)CN)C(=O)N1CCC[C@H]1C(=O)O [risuteganib, Glycyl-L-arginylglycyl-3-sulfo-L-alanyl-L-threonyl-L-proline] (H-GRG[Cya]TP-OH)
[1]
  Change in mean thickness, ELM-RPE mid subfield: −2.493 μm
  Change in mean thickness, EZ-RPE central subfield: −1.803 μm
  Change in mean thickness, EZ-RPE foveal center: 6.825 μm
  Change in mean thickness, EZ-RPE mid subfield: −1.445 μm
  Change in mean thickness, Inner retina central subfield: 8.759 μm
  Change in mean thickness, Inner retina mid subfield: 8.511 μm
  Change in mean thickness, ONL-EZ central subfield: −9.158 μm
  Change in mean thickness, ONL-EZ mid subfield: −8.556 μm
  Change in mean thickness, ONL-RPE central subfield: −10.961 μm
  Change in mean thickness, ONL-RPE foveal center: −6.825 μm
  Change in mean thickness, ONL-RPE mid subfield: −10.001 μm
  Change in mean thickness, RPE-BM central subfield: −11.226 μm
  Change in mean thickness, RPE-BM foveal center: −14.381 μm
  Change in mean thickness, RPE-BM mid subfield: −6.715 μm
  Change in mean thickness, Total retinal central subfield: −2.202 μm
  Change in mean thickness, Total retinal foveal center: −7.569 μm
  Change in mean thickness, Total retinal mid subfield: −1.490 μm
  Change in volume, ELM-EZ central subfield: −0.001 mm^3
  Change in volume, ELM-EZ mid subfield: −0.003 mm^3
  Change in volume, ELM-RPE: 0.171 mm^3
  Change in volume, ELM-RPE central subfield: −0.003 mm^3
  Change in volume, ELM-RPE mid subfield: −0.008 mm^3
  Change in volume, EZ-RPE: −0.051 mm^3
  Change in volume, EZ-RPE central subfield: −0.001 mm^3
  Change in volume, EZ-RPE mid subfield: −0.005 mm^3
  Change in volume, ONL-EZ central subfield: −0.007 mm^3
  Change in volume, ONL-EZ mid subfield: −0.027 mm^3
  Change in volume, ONL-RPE: 0.044 mm^3
  Change in volume, ONL-RPE central subfield: −0.008 mm^3
  Change in volume, ONL-RPE mid subfield: −0.032 mm^3
  Change in volume, RPE-BM: −0.048 mm^3
  Change in volume, RPE-BM central subfield: −0.009 mm^3
  Change in volume, RPE-BM mid subfield: −0.021 mm^3
  Change in volume, Total retinal: −0.247 mm^3
  Change in volume, Total retinal central subfield: −0.001 mm^3
  Change in volume, Total retinal mid subfield: −0.005 mm^3
  Map coverage, 0 μm EZ: 5.026%
  Map coverage, 0 μm RPE-BM: 1.546%
  Map coverage, 10 μm EZ: 5.037%
  Map coverage, 20 μm EZ: 4.506%
  Map coverage, 50 μm RPE-BM: −3.222%
  Map coverage, 150 μm RPE-BM: 2.943%
  Map coverage, 250 μm RPE-BM: −0.017%
[2]
  Change in mean (SD) thickness, ELM-EZ central subfield: −1.827 μm
  Change in mean (SD) thickness, ELM-EZ mid subfield: −0.106 μm
  Change in mean (SD) thickness, ELM-RPE central subfield: −2.912 μm
  Change in mean (SD) thickness, ELM-RPE foveal center: −6.094 μm
  Change in mean (SD) thickness, ELM-RPE mid subfield: −1.593 μm
  Change in mean (SD) thickness, EZ-RPE central subfield: −1.085 μm
  Change in mean (SD) thickness, EZ-RPE foveal center: −0.407 μm
  Change in mean (SD) thickness, EZ-RPE mid subfield: −1.486 μm
  Change in mean (SD) thickness, Inner retina central subfield: 3.880 μm
  Change in mean (SD) thickness, Inner retina mid subfield: 3.893 μm
  Change in mean (SD) thickness, ONL-EZ central subfield: −6.131 μm
  Change in mean (SD) thickness, ONL-EZ mid subfield: −4.954 μm
  Change in mean (SD) thickness, ONL-RPE central subfield: −7.216 μm
  Change in mean (SD) thickness, ONL-RPE foveal center: −3.488 μm
  Change in mean (SD) thickness, ONL-RPE mid subfield: −6.441 μm
  Change in mean (SD) thickness, RPE-BM central subfield: −4.178 μm
  Change in mean (SD) thickness, RPE-BM foveal center: −8.126 μm
  Change in mean (SD) thickness, RPE-BM mid subfield: −2.086 μm
  Change in mean (SD) thickness, Total retinal central subfield: −3.336 μm
  Change in mean (SD) thickness, Total retinal foveal center: −4.154 μm
  Change in mean (SD) thickness, Total retinal mid subfield: −2.548 μm
  Change in volume, ELM-EZ central subfield: −0.001 mm^3
  Change in volume, ELM-EZ mid subfield: 0.000 mm^3
  Change in volume, ELM-RPE: 0.048 mm^3
  Change in volume, ELM-RPE central subfield: −0.002 mm^3
  Change in volume, ELM-RPE mid subfield: −0.005 mm^3
  Change in volume, EZ-RPE: −0.027 mm^3
  Change in volume, EZ-RPE central subfield: −0.001 mm^3
  Change in volume, EZ-RPE mid subfield: −0.005 mm^3
  Change in volume, ONL-EZ central subfield: −0.005 mm^3
  Change in volume, ONL-EZ mid subfield: −0.016 mm^3
  Change in volume, ONL-RPE: −0.009 mm^3
  Change in volume, ONL-RPE central subfield: −0.005 mm^3
  Change in volume, ONL-RPE mid subfield: −0.020 mm^3
  Change in volume, RPE-BM: −0.006 mm^3
  Change in volume, RPE-BM central subfield: −0.003 mm^3
  Change in volume, RPE-BM mid subfield: −0.007 mm^3
  Change in volume, Total retinal: −0.048 mm^3
  Change in volume, Total retinal central subfield: −0.002 mm^3
  Change in volume, Total retinal mid subfield: −0.008 mm^3
[3]
  Map coverage, 0 μm EZ: 2.574%
  Map coverage, 0 μm RPE-BM: 1.282%
  Map coverage, 10 μm EZ: 2.515%
  Map coverage, 20 μm EZ: 2.431%
  Map coverage, 50 μm RPE-BM: −2.644%
  Map coverage, 150 μm RPE-BM: 2.739%
  Map coverage, 250 μm RPE-BM: −0.006%
